Results taken from the supplement of paper PMC11061612.

Legend:
MKN1 (Gastric Carcinoma) [1] = assay: combination Emax (second highest fraction inhibited in the dose matrix, 72 h); higher = more inhibition; extreme values may be limits of the assay
In short: (§1)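 Cell lines in DMEM/F12 or RPMI with 10% FBS were plated in 1536-well plates, held 24 hours at 37°C, 5% CO2, then given two-drug dose matrices for 72 hours (DMSO typically 0.2%). Viability was read by CellTiter-Glo 2.0 luminescence and scaled as inhibition from 0 (vehicle wells) to 1 (blank wells). Combination Emax is the second-highest inhibition in the matrix; Bliss excess is observed combination effect minus expected EA + EB − EA·EB, EA and EB being single-agent effects.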

[2] = tested on: GCT (Other Solid Carcinomas); assay: as above
In short: as §1

[3] = tested on: G-402 (Other Solid Carcinomas); assay: as above
In short: as §1

[4] = tested on: SW620 (Colorectal Carcinoma); assay: as above
In short: as §1

HCC70 (Breast Carcinoma) = assay: as above
In short: as §1

769-P (Kidney Carcinoma) = assay: as above
In short: as §1

[5] = tested on: huH-1 (Hepatocellular Carcinoma); assay: as above
In short: as §1

[6] = tested on: 22RV1 (Prostate Carcinoma); assay: as above
In short: as §1

[7] = tested on: EPLC-272H (Other Solid Carcinomas); assay: as above
In short: as §1

[8] = tested on: CA46 (Burkitt's Lymphoma); assay: as above
In short: as §1

[9] = tested on: NCI-H841 (Small Cell Lung Carcinoma); assay: as above
In short: as §1

[10] = tested on: SK-HEP-1 (Hepatocellular Carcinoma); assay: as above
In short: as §1

MKN1 (Gastric Carcinoma) [11] = assay: Bliss excess, mean over the matrix (fraction); higher = more synergy
In short: as §1

[12] = tested on: NCI-H841 (Small Cell Lung Carcinoma); assay: as above
In short: as §1
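For Bliss excess, mean over the matrix in this document: after 72 h of two-drug dosing.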

SMILES | combination Emax (MKN1 (Gastric Carcinoma) [1]) | combination Emax [2] | combination Emax [3] | combination Emax [4] | combination Emax (HCC70 (Breast Carcinoma)) | combination Emax (769-P (Kidney Carcinoma)) | combination Emax [5] | combination Emax [6] | combination Emax [7] | combination Emax [8] | combination Emax [9] | combination Emax [10] | Bliss excess (MKN1 (Gastric Carcinoma) [11]) | Bliss excess [12]
CN(C)CCCOc1ccc(-c2ccc3ncc4c(c3c2)n(C2CCOCC2)c(=O)n4C)cn1 [AZD0156] + O=C(c1cc(Cc2n[nH]c(=O)c3ccccc23)ccc1F)N1CCN(C(=O)C2CC2)CC1 [Olaparib] (first compound max 3 µM, partner max 3 µM) | 0.307 | 0.282 | 0.41 | 0.337 | 0.359 | 0.16 | 0.174 | 0.483 | 0.503 | 0.567 | 0.208 | 0.332 | 0.0242 | -0.0483
C=CCn1c(=O)c2cnc(Nc3ccc(N4CCN(C)CC4)cc3)nc2n1-c1cccc(C(C)(C)O)n1 [AZD1775] + C1CN(CCC1(C(=O)N[C@@H](CCO)C2=CC=C(C=C2)Cl)N)C3=NC=NC4=C3C=CN4 [Capivasertib] (first compound max 3 µM, partner max 3 µM) | 0.821 | 0.623 | 0.619 | 0.8 | 0.754 | 0.665 | 0.666 | 0.616 | 0.834 | 0.843 | 0.676 | 0.503 | -0.0236 | -0.0788
COc1nnc2ccc(N3CCC(c4ccc(OCCN5CCN(C)C(=O)[C@H]5C)cc4)CC3)nn12 [AZD5153] + C=CCn1c(=O)c2cnc(Nc3ccc(N4CCN(C)CC4)cc3)nc2n1-c1cccc(C(C)(C)O)n1 [AZD1775] (first compound max 1 µM, partner max 1 µM) | 0.926 | 0.617 | 0.85 | 0.685 | 0.44 | 0.956 | 0.558 | 0.529 | 0.862 | 0.744 | 0.503 | 0.312 | 0.0363 | -0.0299
COc1nnc2ccc(N3CCC(c4ccc(OCCN5CCN(C)C(=O)[C@H]5C)cc4)CC3)nn12 [AZD5153] + CC1(C)CCC(CN2CCN(c3ccc(C(=O)NS(=O)(=O)c4ccc(NCC5CCOCC5)c([N+](=O)[O-])c4)c(Oc4cnc5[nH]ccc5c4)c3)CC2)=C(c2ccc(Cl)cc2)C1 [Venetoclax] (first compound max 1 µM, 7x7, partner max 1 µM) | 0.57 | 0.595 | 0.769 | 0.431 | 0.309 | 0.701 | 0.401 | 0.486 | 0.754 | 0.658 | 0.317 | 0.485 | -0.0062 | -0.0317
COc1nnc2ccc(N3CCC(c4ccc(OCCN5CCN(C)C(=O)[C@H]5C)cc4)CC3)nn12 [AZD5153] + CCN(CCO)CCCOc1ccc2c(Nc3cc(CC(=O)Nc4cccc(F)c4)[nH]n3)ncnc2c1 [AZD2811] (first compound max 1 µM, 7x7, partner max 1 µM) | 0.807 | 0.568 | 0.825 | 0.597 | 0.459 | 0.711 | 0.527 | 0.522 | 0.748 | 0.652 | 0.428 | 0.41 | -0.0033 | 0.0001
COc1nnc2ccc(N3CCC(c4ccc(OCCN5CCN(C)C(=O)[C@H]5C)cc4)CC3)nn12 [AZD5153] + C[C@@H]1COCCN1C2=NC(=NC(=C2)C3(CC3)[S@](=N)(=O)C)C4=C5C=CNC5=NC=C4 [AZD6738] (first compound max 1 µM, 7x7, partner max 10 µM) | 0.936 | 0.6 | 0.941 | 0.784 | 0.659 | 0.977 | 0.69 | 0.645 | 0.919 | 0.754 | 0.73 | 0.406 | 0.0483 | 0.0202
COc1nnc2ccc(N3CCC(c4ccc(OCCN5CCN(C)C(=O)[C@H]5C)cc4)CC3)nn12 [AZD5153] + Cc1c2c(nn1C)CSCc1cc(n(C)n1)CSc1cc(c3ccccc3c1)OCCCc1c(C(=O)O)n(C)c3c-2c(Cl)ccc13 [AZD5991] (first compound max 1 µM, 7x7, partner max 1 µM) | 0.866 | 0.6 | 0.987 | 0.512 | 0.96 | 0.727 | 0.435 | 0.857 | 0.959 | 0.64 | 0.565 | 0.583 | 0.0194 | -0.0119
COc1nnc2ccc(N3CCC(c4ccc(OCCN5CCN(C)C(=O)[C@H]5C)cc4)CC3)nn12 [AZD5153] + Cn1cnc2c(F)c(Nc3ccc(Br)cc3Cl)c(C(=O)NOCCO)cc21 [Selumetinib] (first compound max 1 µM, 7x7, partner max 10 µM) | 0.619 | 0.59 | 0.797 | 0.76 | 0.584 | 0.659 | 0.438 | 0.555 | 0.868 | 0.633 | 0.328 | 0.234 | -0.0081 | -0.0121
NC1(C(=O)N[C@@H](CCO)c2ccc(Cl)cc2)CCN(c2ncnc3[nH]ccc23)CC1 [Capivasertib] + CC(=O)c1c(C)c2cnc(Nc3ccc(N4CCNCC4)cn3)nc2n(C2CCCC2)c1=O [Palbociclib] (first compound max 10 µM, 7x7, partner max 10 µM) | 0.463 | 0.718 | 0.605 | 0.473 | 0.657 | 0.773 | 0.374 | 0.639 | 0.891 | 0.411 | 0.293 | 0.673 | 0.0106 | -0.0365
NC1(C(=O)N[C@@H](CCO)c2ccc(Cl)cc2)CCN(c2ncnc3[nH]ccc23)CC1 [Capivasertib] + CC(C)n1c(=O)n(C)c2cnc3cc(F)c(-c4ccc(OCCCN5CCCCC5)nc4)cc3c21 [AZD1390] (first compound max 10 µM, 7x7, partner max 0.3 µM) | 0.39 | 0.6 | 0.398 | 0.227 | 0.707 | 0.34 | 0.299 | 0.527 | 0.632 | 0.23 | 0.273 | 0.318 | -0.0379 | -0.0909
NC1(C(=O)N[C@@H](CCO)c2ccc(Cl)cc2)CCN(c2ncnc3[nH]ccc23)CC1 [Capivasertib] + CCN(CCO)CCCOc1ccc2c(Nc3cc(CC(=O)Nc4cccc(F)c4)[nH]n3)ncnc2c1 [AZD2811] (first compound max 10 µM, 7x7, partner max 1 µM) | 0.531 | 0.636 | 0.658 | 0.328 | 0.745 | 0.422 | 0.384 | 0.544 | 0.708 | 0.362 | 0.426 | 0.533 | -0.0067 | -0.0415
NC1(C(=O)N[C@@H](CCO)c2ccc(Cl)cc2)CCN(c2ncnc3[nH]ccc23)CC1 [Capivasertib] + COc1nnc2ccc(N3CCC(c4ccc(OCCN5CCN(C)C(=O)[C@H]5C)cc4)CC3)nn12 [AZD5153] (first compound max 10 µM, 7x7, partner max 1 µM) | 0.782 | 0.695 | 0.723 | 0.427 | 0.876 | 0.729 | 0.358 | 0.649 | 0.944 | 0.644 | 0.405 | 0.497 | 0.0481 | -0.0002
NC1(C(=O)N[C@@H](CCO)c2ccc(Cl)cc2)CCN(c2ncnc3[nH]ccc23)CC1 [Capivasertib] + C[C@@H]1COCCN1C2=NC(=NC(=C2)C3(CC3)[S@](=N)(=O)C)C4=C5C=CNC5=NC=C4 [AZD6738] (first compound max 10 µM, 7x7, partner max 10 µM) | 0.807 | 0.673 | 0.771 | 0.545 | 0.817 | 0.88 | 0.692 | 0.76 | 0.885 | 0.474 | 0.457 | 0.318 | -0.0639 | -0.0622
NC1(C(=O)N[C@@H](CCO)c2ccc(Cl)cc2)CCN(c2ncnc3[nH]ccc23)CC1 [Capivasertib] + Cn1cnc2c(F)c(Nc3ccc(Br)cc3Cl)c(C(=O)NOCCO)cc21 [Selumetinib] (first compound max 10 µM, 7x7, partner max 10 µM) | 0.552 | 0.753 | 0.513 | 0.712 | 0.908 | 0.426 | 0.464 | 0.625 | 0.982 | 0.2 | 0.308 | 0.197 | 0.081 | 0.0115
CS(=O)(=O)CCNCc1ccc(-c2ccc3ncnc(Nc4ccc(OCc5cccc(F)c5)c(Cl)c4)c3c2)o1 [Lapatinib] + C[C@@H](Oc1cc(-c2cnn(C3CCNCC3)c2)cnc1N)c1c(Cl)ccc(F)c1Cl [Crizotinib] (first compound max 10 µM, 7x7, partner max 10 µM) | 0.922 | 0.903 | 0.879 | 0.921 | 0.685 | 0.966 | 0.671 | 0.706 | 0.959 | 0.861 | 0.356 | 0.255 | 0.0038 | -0.0378
CC(=O)c1c(C)c2cnc(Nc3ccc(N4CCNCC4)cn3)nc2n(C2CCCC2)c1=O [Palbociclib] + CC1(C)CCC(CN2CCN(c3ccc(C(=O)NS(=O)(=O)c4ccc(NCC5CCOCC5)c([N+](=O)[O-])c4)c(Oc4cnc5[nH]ccc5c4)c3)CC2)=C(c2ccc(Cl)cc2)C1 [Venetoclax] (first compound max 10 µM, 7x7, partner max 1 µM) | 0.249 | 0.313 | 0.442 | 0.385 | 0.0684 | 0.814 | 0.119 | 0.382 | 0.243 | 0.355 | 0.0903 | 0.621 | -0.0394 | -0.0463
CC(=O)c1c(C)c2cnc(Nc3ccc(N4CCNCC4)cn3)nc2n(C2CCCC2)c1=O [Palbociclib] + Cc1c2c(nn1C)CSCc1cc(n(C)n1)CSc1cc(c3ccccc3c1)OCCCc1c(C(=O)O)n(C)c3c-2c(Cl)ccc13 [AZD5991] (first compound max 10 µM, 7x7, partner max 1 µM) | 0.313 | 0.395 | 0.839 | 0.466 | 0.867 | 0.786 | 0.236 | 0.503 | 0.822 | 0.304 | 0.289 | 0.848 | -0.0238 | -0.0265
